Our source for the IC50 values is BindingDB's records for patent US20250034159 (Oric Pharmaceuticals, 2025).

Assay [1] deals with Epidermal growth factor receptor [L858R,C797S] (Human, UniProt P00533, C797S/L858R). Nature of the assay: Biochemical Assay Against EGFR L858R/C797S Protein (EGFR LR/CS). Here is the method:
(§1) In wells A1 and A24, were added 12 μL of DMSO. […] To a well in Row A were added 12 μL of each 10 mM test compound stock (100% DMSO). […] The final intermediate dilution plate contained 4×16-point compound serial dilutions in assay buffer. The DMSO concentration was 10%. The intermediate compound dilution plate was transferred to the Bravo and the “5 uL dispense into ARP.pro” protocol was run. To the black low volume assay ready plates, were added 5 μL of 40 uM Phosphosens peptide sensor/4 mM ATP working solution to each well. […] To column 24, was added 10 μL of assay buffer. The final DMSO concentration was 2.5%.

Assay [2] deals with T1, Epidermal growth factor receptor [DEL746-750,C797S] (Homo sapiens, UniProt P00533, C797S/DEL746-750).
T1 construct: gene EGFR
Nature of the assay: Biochemical Assay Against EGFR Exon 19 Deletion/C797S Protein (EGFR d19/CS). Here is the method: as §1

T1 sequence (P00533 with tags, fused parts or gaps C797S/DEL746-750 limits assumed): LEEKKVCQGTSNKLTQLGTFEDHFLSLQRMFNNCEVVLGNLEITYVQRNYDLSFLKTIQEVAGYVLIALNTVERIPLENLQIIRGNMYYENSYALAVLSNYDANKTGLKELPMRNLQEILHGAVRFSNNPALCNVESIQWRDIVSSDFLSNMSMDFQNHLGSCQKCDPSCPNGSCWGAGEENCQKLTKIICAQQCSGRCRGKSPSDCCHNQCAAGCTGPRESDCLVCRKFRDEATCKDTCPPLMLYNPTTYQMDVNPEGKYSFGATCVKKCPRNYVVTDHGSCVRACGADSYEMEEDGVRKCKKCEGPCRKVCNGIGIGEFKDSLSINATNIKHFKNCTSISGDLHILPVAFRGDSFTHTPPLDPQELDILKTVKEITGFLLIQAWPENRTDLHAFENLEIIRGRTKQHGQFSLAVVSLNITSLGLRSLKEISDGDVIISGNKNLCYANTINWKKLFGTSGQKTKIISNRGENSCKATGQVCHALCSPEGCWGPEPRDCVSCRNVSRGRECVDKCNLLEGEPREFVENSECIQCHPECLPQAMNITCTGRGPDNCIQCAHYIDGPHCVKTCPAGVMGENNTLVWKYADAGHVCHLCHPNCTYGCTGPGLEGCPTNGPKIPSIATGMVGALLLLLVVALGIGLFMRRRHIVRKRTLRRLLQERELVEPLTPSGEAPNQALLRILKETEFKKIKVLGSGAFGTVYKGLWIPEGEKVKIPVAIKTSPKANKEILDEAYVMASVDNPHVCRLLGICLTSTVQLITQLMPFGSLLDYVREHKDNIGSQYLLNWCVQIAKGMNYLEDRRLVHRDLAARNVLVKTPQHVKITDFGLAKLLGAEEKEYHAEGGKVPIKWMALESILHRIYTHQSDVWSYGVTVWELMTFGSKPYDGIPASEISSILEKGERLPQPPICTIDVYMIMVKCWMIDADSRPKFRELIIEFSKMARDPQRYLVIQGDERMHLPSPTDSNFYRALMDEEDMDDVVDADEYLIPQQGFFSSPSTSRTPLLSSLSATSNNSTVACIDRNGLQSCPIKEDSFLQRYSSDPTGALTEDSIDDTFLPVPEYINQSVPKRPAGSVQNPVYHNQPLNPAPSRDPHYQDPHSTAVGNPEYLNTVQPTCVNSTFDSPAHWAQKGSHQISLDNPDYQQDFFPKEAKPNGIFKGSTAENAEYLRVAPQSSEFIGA
Chain of Epidermal growth factor receptor [L858R,C797S] (P00533 25-1210 C797S/L858R limits assumed): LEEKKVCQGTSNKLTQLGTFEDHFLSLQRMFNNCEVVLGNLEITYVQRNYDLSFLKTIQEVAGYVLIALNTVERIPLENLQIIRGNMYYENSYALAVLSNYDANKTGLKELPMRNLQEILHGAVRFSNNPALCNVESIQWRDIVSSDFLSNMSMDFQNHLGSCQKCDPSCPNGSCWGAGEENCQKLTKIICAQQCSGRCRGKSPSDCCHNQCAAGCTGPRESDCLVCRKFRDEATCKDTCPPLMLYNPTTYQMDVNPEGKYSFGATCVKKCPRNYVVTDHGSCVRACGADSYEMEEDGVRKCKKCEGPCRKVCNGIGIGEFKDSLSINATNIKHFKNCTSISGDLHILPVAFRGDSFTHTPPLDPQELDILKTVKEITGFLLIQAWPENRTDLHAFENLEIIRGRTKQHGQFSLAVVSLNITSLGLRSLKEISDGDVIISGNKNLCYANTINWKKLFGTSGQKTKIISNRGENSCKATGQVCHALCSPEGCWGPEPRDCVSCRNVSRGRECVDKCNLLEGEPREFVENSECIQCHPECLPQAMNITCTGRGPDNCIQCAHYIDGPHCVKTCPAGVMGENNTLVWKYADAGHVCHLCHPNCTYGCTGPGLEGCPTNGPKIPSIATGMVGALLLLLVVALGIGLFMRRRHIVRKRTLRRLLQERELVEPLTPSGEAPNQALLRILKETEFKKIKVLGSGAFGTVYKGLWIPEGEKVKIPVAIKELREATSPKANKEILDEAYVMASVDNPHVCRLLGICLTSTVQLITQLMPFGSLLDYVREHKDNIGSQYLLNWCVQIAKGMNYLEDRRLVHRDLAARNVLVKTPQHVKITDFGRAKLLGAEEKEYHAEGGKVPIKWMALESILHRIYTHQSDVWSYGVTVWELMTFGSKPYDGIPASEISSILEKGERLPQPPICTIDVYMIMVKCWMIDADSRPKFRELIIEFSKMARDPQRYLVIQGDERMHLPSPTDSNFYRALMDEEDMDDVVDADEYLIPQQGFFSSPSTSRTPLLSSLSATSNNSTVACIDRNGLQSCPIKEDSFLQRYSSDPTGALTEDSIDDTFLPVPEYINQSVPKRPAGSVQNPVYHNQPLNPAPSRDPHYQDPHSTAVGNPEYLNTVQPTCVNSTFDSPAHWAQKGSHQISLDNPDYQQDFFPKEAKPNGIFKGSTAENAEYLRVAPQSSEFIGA

As a reminder, the IC50 is the midpoint of a concentration-inhibition curve. With `O=S1(=O)CCC(n2cc(-c3ncnc4oc(-c5ccccc5)cc34)c(-c3ccc(F)cc3)n2)CC1` [US20250034159, Example 83], the values for the IC50 in assay [1] and in assay [2] were 6.32 nM and 8.54 nM, respectively.
The compound `Fc1ccc(-c2nn(CCOC(F)(F)F)cc2-c2ncnc3oc(-c4ccccc4)cc23)cc1` [US20250034159, Example 144] gave an IC50 in assay [2] of 2.41 nM.
Same read-out and setting: with `Fc1ccc(-c2nn(CCC(F)F)cc2-c2ccnc3oc(-c4ccccc4)cc23)cc1` [US20250034159, Example 157] the figure was 0.57 nM.
Consider `O=S1(=O)CC(n2cc(-c3ncnc4oc(C5=CCN(S(=O)(=O)C6CC6)CC5)cc34)c(-c3ccc(F)cc3)n2)C1` [US20250034159, Example 177], for which the IC50 in assay [2] came to 0.42 nM.
